Several values for one entry are separate records, joined by “and”; a condition that tells them apart may be missing. Equal entries are not always repeated.
What was measured:
[1] = biological target: T1, RMS3 (Pisum sativum, UniProt A0A109QYD3); experiment: Differential scanning fluorimetry; format: binding; conditions: DSF
T1 sequence (A0A109QYD3 1-267): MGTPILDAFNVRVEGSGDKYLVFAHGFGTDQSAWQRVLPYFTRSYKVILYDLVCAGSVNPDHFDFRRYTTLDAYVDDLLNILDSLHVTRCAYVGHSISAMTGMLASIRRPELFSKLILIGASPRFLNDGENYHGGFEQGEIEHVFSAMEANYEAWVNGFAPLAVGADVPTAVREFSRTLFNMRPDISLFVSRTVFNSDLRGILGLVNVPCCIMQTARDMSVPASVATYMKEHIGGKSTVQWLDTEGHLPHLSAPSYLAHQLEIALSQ

[2] = biological target: T1, RMS3; experiment: Intrinsic tryptophan fluorescence, apparent dissociation coefficient; format: binding; conditions: apparent Kd from intrinsic fluorescence, mean ± SE of two replicates
[3] = biological target: T1, RMS3; experiment: Competition test with; format: biochemical

Structure (SMILES) | shift in RMS3 melting temperature (destabilization) [1] | Kd [2] | mode of inhibition of (±)-GC242 hydrolysis ([3]; RMS3) | Ki ([3]; RMS3, competition test with (±)-GC242, mean ± SE of three replicates) | Kd ([2]; Kd)
O=C1C=CC(OC=C2C(=O)OC3c4ccccc4CC23)O1 (racemic) [(±)-4’-desmethyl-2’-epi-GR24] | no shift | 296 ± 27.9 µM |  |  | 
O=C1OC2c3ccccc3CC2/C1=C\O (racemic) [(±)-ABC] | no shift | 271 ± 29.8 µM | competitive inhibitor | 28.8 ± 17.6 µM | 
Cc1cc(=O)oc2c(F)c(O)c(F)cc12 [DiFMU, 6,8-difluoro-7-hydroxy-4-methylcoumarin] | small stabilization |  |  |  | 20 µM and 19.9 µM
CC1=C(C)C(OC=C2C(=O)OC3c4ccccc4CC23)OC1=O (racemic) [(±)-3’-Me-GR24] |  | 30.9 ± 5.2 µM |  |  | 

From PMC5030144 (Nature chemical biology, 2016)
